Assay [1] can be described thus: Free radical scavenger, SOD mimetic activity (xanthine/xanthine oxidase/NBT). Format: biochemical. Conditions: 6.1 μM. How it is done: SS304L or vehicle was incubated with 0.12 mM xanthine, 6 mU xanthine oxidase, 27 μM nitroblue tetrazolium (NBT), 0.11 mM EDTA, 0.005% bovine serum albumin and Na2CO3 at pH 10.5 at 25° C. for 20 minutes. Conversion of xanthine to uric acid +O^−+NBT to formazan was then determined by measurement of absorbance at 595 nm and percent inhibition by superoxide dismutase or SS304L was calculated.

Assay [2] has as its system Human dermal fibroblasts (HFB). Put plainly: HFB proliferation (MTT). The following applies: 72 hours; for Mean OD: MTT A570. Type of assay: cell-based.
Method: Human dermal fibroblasts (HFB) were cultured from foreskin with consent by cell emigration from ˜1 mm^3 skin pieces in DMEM+1 mM sodium pyruvate+2 mM glutamine+100 U/ml penicillin+100 ug/ml streptomycin+10% fetal calf serum (FCS) (C-DMEM) under humidified atmosphere containing 5% CO2 at 37° C.
1×10^4 HFB were seeded in a 96 multi-well culture dish. 48 hours later, the cells were treated with various concentrations of SS304L in C-DMEM under humidified atmosphere containing 5% CO2 at 37° C. The cells were exposed to drugs for 72 hours, and then treated with 0.5 mg/ml MTT for 4 hours at 37° C. The reduced formazan was dissolved in isopropanol containing 0.04 N HCl, and measured at A570 nm by an ELISA reader (Molecular Device).
In a further assay the target is T1, Human recombinant COX II (Homo sapiens, UniProt P35354).
T1 construct: purchased Sigma C-0858; host or cells: Sf21 insect cells
T1 sequence (P35354 18-604): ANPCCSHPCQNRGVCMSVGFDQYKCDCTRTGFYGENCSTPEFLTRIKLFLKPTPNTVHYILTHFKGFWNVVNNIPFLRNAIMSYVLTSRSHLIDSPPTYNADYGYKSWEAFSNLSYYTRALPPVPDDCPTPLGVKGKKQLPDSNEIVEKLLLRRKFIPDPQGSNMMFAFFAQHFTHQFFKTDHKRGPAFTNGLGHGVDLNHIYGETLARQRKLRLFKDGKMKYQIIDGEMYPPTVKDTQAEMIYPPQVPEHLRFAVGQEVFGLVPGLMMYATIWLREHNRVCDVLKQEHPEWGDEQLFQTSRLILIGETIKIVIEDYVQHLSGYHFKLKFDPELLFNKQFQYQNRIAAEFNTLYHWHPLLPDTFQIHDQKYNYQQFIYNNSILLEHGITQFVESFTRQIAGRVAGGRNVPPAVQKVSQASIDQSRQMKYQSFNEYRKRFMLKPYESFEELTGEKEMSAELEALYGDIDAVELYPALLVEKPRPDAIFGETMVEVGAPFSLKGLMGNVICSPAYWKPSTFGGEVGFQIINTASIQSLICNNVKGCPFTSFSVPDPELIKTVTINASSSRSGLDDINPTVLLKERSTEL
Put plainly: Inhibition of cyclooxygenase II. Type of assay: biochemical. The method, then:
SS304L or vehicle was […] with 0.11 U enzyme, 1 mM reduced glutathione, 500 μM phenol and 1 μM hematin in Tris-HCl, pH 7.7 at 37° C. for 15 minutes. 0.3 μM arachidonic acid as substrate was added and the reaction was terminated by addition of 1 N HCl after 5 minutes. The converted PGE2 was measured by an Amersham EIA kit following centrifugation. SS304L was assayed at 10 and 100 μg/ml.

Assay [3] has as its system full thickness excision wounds. Put plainly: Full thickness excision wound healing in mice. Type of assay: in vivo, Aging male ICR mice. The method, then:
Aging male ICR mice at body weights of 40 to 50 grams (Age: 14 to 16 weeks) were lightly anesthetized with ether. 0.7 mm in diameter full thickness excisions were conducted at the dorsal back skin after shaving and 70% ethanol sterilization. Immediately after excision, the wounds were covered with either vehicle (sterile 1% carboxymethyl cellulose, 25 μl) at first wound site of all mice, and with 1% arginine, 0.1% S[…], or 1% S[…] at the second wound site. Each group contained 4 to 6 mice. The drugs were applied on the day of photography (Day 0, 1, 2, 3, 4, 7, 10, 14, 18). The areas of the wounds and the rates and qualities of healing were compared at each time point. Arginine was used as comparison due to the similarity of part of its action mechanisms to S[…].

The results in this text go back to US20090186100A1, “MEDICAMENT FOR ANTI-AGING SKIN CARE AND WOUND HEALING AND USE THEREOF” (SAGITTARIUS LIFE SCIENCE CORP., priority 2008, published 2009).

In the case of `O=C(O[C@@H]1Cc2c(O)cc(O)cc2O[C@@H]1c1ccc(O)c(O)c1)c1cc(O)c(O)c(O)c1` [(−)-Epicatechin gallate], in assay [1], the “Inhibition (%)” value is on record as 50%.

Take `C[C@]12CC[C@@H]3c4ccc(O)cc4CC[C@H]3[C@@H]1CC[C@@H]2O` [Estradiol]: the “Inc. (%.)” value in assay [2] (Estradiol 1 nM) is on record as −4%; in assay [2] (Estradiol 3 nM), 4%; in assay [2] (Estradiol 10 nM), 2%; in assay [2] (Estradiol 30 nM), −3%; in assay [2] (Estradiol 100 nM), −4%. For the same molecule, the “Mean OD” value amounted to 0.131 in assay [2] (Estradiol 1 nM); 0.139 in assay [2] (Estradiol 3 nM); 0.137 in assay [2] (Estradiol 10 nM); 0.132 in assay [2] (Estradiol 30 nM); 0.131 in assay [2] (Estradiol 100 nM).

As to `CS(=O)(=O)Nc1ccc([N+](=O)[O-])cc1Oc1ccccc1` [Nimesulide], on Human recombinant COX II, the inhibition (as a rule, the share of the control response that was lost under treatment) at 1 µM was 50%.

For `N=C(N)NCCC[C@H](N)C(=O)O` [arginine], in assay [3] (day 3 post wounding, topical), the Inflammation of wounds entry is listed as “no apparent sign of inflammation”. Also, the Re-epithelization/granulation process entry in assay [3] (day 7, topical) is “significantly facilitated”. Also, the “Unhealed wound areas compared to the areas of the vehicle treated wounds (fraction)” value in assay [3] (day 10, applied at 1%) is on record as “⅓ to ½”. In assay [3] (day 14, topical), the Healing of wounds entry is listed as “completely healed”.

For the molecule Vitamin A, the “Inc. (%)” value is −7% in assay [2] (Vitamin A 0.1 uM); −4% in assay [2] (Vitamin A 0.3 uM); −4% in assay [2] (Vitamin A 1 uM); −12% in assay [2] (Vitamin A 3 uM); −6% in assay [2] (Vitamin A 10 uM). Further, the “Mean OD” value came to 0.128 in assay [2] (Vitamin A 0.1 uM); 0.131 in assay [2] (Vitamin A 0.3 uM); 0.131 in assay [2] (Vitamin A 1 uM); 0.124 in assay [2] (Vitamin A 3 uM); 0.129 in assay [2] (Vitamin A 10 uM).

Take Vitamin E: the “Inc. (%.)” value is listed as 0% in assay [2] (Vitamin E 3 uM); 9% in assay [2] (Vitamin E 10 uM); −4% in assay [2] (Vitamin E 30 uM); −9% in assay [2] (Vitamin E 100 uM); −16% in assay [2] (Vitamin E 300 uM). Moreover, the “Mean OD” value in assay [2] (Vitamin E 3 uM) came to 0.135; in assay [2] (Vitamin E 10 uM) it was 0.144; in assay [2] (Vitamin E 30 uM) it was 0.131; in assay [2] (Vitamin E 100 uM) it was 0.126; in assay [2] (Vitamin E 300 uM), 0.120.
